Blank lines part the entries; values can stand above or below the compound they belong to.
What was measured:
[1] = target: Voltage-gated inwardly rectifying potassium channel KCNH2 (Homo sapiens, UniProt Q12809); assay: Selectivity interaction (Panel of non-epigenetic targets (kinases, GPCRs, ion channels, and transporters, Eurofins) ) EUB0000271b KCNH2; conditions: at 1 µM
[2] = target: T1, Serine/threonine-protein kinase TAO1 (Homo sapiens) (UniProt Q7L7X3); assay: Selectivity interaction (Ambit KINOMEscan and KiNATiv profiling in Jurkat cells) EUB0000090b TAOK1; assay type: cell-based; conditions: at 1 µM
T1 sequence (whole entry): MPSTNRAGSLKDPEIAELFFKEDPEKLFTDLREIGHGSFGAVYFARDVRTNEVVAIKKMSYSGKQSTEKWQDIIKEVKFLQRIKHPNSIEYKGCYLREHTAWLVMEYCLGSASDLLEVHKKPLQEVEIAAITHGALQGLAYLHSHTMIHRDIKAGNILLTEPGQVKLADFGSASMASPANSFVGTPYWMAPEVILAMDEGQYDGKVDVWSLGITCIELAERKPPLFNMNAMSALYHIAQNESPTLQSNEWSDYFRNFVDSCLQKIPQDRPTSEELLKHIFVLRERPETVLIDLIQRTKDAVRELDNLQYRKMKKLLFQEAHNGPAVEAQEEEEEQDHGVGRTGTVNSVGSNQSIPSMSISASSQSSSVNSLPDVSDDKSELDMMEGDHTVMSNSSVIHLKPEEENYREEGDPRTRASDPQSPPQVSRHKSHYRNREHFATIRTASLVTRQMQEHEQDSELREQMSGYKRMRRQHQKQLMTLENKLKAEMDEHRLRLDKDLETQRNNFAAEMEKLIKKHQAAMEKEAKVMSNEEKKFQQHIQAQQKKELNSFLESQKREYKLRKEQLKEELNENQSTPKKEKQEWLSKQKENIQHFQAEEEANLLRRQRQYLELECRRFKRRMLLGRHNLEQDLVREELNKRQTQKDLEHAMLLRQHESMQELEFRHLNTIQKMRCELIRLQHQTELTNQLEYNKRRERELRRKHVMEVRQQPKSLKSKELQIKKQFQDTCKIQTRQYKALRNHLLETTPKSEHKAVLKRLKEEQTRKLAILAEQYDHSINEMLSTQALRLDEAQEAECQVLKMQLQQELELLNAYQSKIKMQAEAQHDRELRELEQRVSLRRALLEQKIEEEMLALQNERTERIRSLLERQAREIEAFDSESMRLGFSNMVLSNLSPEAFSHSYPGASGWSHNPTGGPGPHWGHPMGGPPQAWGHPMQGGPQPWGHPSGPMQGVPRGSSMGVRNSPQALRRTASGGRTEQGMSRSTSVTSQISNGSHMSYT

[3] = target: Cyclin-dependent kinase 14 (Homo sapiens) (UniProt O94921); assay: Selectivity interaction (KinomeScan (DiscoverX)) EUB0001079a CDK14; conditions: at 1 µM
[4] = target: Ribosomal protein S6 kinase alpha-4 (Homo sapiens) (UniProt O75676); assay: Selectivity interaction (KinomeScan (DiscoverX)) EUB0000607a RPS6KA4; conditions: at 10 µM
[5] = target: T2, Mitogen-activated protein kinase 15 (Homo sapiens) (UniProt Q8TD08); assay: Selectivity interaction (KinomeScan (DiscoverX)) EUB0000607a MAPK15; conditions: at 10 µM
T2 sequence (whole entry): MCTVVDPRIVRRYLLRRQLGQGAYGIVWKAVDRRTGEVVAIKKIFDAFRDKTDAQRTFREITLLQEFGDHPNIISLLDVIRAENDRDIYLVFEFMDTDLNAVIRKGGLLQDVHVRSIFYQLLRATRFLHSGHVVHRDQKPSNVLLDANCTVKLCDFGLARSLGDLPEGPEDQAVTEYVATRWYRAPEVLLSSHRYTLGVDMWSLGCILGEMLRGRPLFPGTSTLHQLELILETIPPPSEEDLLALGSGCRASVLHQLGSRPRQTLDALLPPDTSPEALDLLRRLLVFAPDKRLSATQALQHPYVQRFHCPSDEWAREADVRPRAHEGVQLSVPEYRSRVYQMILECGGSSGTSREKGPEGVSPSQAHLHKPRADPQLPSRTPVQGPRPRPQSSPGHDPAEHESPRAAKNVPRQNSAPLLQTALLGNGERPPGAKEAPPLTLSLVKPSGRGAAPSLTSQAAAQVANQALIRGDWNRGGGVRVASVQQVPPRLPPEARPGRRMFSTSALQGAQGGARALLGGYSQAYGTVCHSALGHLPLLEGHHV

[6] = target: Dual specificity mitogen-activated protein kinase kinase 1 (Homo sapiens, UniProt Q02750); conditions: at 10 µM
[7] = target: Protein-tyrosine kinase 2-beta (Homo sapiens) (UniProt Q14289); assay: Selectivity interaction (ProQinase) EUB0000171b PTK2B
Aurora kinase B = Aurora kinase B (Homo sapiens, UniProt Q96GD4); assay: Selectivity interaction (KinomeScan (DiscoverX)) EUB0000092b AURKB; conditions: at 10 µM
[8] = target: T3, Tyrosine-protein kinase receptor TYRO3 (Homo sapiens) (UniProt Q06418); assay: Selectivity interaction (KinomeScan (DiscoverX)) EUB0000695a TYRO3; conditions: at 100 nM
T3 sequence (whole entry): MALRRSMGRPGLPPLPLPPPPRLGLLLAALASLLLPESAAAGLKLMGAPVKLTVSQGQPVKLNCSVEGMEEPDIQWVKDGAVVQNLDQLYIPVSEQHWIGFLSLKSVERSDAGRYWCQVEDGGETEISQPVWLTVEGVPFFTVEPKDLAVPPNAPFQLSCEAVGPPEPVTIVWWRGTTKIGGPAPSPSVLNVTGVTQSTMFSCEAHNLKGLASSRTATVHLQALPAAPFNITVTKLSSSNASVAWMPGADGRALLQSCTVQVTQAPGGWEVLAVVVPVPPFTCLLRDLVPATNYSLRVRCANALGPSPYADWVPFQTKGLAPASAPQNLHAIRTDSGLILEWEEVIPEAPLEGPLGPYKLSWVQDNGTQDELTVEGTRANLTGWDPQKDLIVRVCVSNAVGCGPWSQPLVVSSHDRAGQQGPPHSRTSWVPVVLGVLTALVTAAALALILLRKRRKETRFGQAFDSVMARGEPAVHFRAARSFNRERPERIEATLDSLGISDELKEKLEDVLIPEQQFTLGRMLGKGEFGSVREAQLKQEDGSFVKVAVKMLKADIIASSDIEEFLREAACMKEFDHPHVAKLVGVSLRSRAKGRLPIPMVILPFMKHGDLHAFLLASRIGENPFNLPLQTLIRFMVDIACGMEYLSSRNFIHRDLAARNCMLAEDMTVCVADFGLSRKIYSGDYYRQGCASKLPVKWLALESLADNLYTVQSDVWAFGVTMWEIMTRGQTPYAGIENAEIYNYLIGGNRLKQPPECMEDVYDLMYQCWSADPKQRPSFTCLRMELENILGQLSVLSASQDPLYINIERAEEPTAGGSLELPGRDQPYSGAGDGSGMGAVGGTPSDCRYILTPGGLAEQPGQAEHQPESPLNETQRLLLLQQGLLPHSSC

Chain of Protein-tyrosine kinase 2-beta (Homo sapiens) (Q14289 whole entry, looked up): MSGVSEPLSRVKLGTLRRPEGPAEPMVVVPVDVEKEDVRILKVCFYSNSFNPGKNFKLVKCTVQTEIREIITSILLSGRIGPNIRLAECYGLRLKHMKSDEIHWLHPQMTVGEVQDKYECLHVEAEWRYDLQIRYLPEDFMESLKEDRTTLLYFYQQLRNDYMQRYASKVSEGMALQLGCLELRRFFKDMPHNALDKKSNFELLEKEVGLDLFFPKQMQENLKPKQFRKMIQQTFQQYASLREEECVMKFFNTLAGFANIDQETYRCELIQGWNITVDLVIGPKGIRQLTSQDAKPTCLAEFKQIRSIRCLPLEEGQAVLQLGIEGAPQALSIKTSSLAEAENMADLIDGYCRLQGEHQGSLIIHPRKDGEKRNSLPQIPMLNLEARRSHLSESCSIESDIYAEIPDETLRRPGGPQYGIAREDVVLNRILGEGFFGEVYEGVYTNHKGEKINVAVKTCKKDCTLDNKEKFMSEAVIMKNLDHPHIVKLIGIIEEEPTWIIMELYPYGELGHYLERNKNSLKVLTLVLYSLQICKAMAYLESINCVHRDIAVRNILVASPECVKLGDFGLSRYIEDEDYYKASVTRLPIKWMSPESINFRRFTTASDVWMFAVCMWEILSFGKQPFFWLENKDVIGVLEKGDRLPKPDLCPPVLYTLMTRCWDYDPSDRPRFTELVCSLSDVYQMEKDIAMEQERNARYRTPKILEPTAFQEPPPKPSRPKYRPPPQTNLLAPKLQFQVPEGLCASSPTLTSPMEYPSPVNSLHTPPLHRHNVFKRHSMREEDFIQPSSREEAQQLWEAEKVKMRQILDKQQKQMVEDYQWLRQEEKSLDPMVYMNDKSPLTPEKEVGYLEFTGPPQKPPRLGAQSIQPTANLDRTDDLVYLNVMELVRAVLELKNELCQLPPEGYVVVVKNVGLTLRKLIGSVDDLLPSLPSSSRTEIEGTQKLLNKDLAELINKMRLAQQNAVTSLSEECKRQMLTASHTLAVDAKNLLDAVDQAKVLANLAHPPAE
Chain of Ribosomal protein S6 kinase alpha-4 (Homo sapiens) (O75676 whole entry, looked up): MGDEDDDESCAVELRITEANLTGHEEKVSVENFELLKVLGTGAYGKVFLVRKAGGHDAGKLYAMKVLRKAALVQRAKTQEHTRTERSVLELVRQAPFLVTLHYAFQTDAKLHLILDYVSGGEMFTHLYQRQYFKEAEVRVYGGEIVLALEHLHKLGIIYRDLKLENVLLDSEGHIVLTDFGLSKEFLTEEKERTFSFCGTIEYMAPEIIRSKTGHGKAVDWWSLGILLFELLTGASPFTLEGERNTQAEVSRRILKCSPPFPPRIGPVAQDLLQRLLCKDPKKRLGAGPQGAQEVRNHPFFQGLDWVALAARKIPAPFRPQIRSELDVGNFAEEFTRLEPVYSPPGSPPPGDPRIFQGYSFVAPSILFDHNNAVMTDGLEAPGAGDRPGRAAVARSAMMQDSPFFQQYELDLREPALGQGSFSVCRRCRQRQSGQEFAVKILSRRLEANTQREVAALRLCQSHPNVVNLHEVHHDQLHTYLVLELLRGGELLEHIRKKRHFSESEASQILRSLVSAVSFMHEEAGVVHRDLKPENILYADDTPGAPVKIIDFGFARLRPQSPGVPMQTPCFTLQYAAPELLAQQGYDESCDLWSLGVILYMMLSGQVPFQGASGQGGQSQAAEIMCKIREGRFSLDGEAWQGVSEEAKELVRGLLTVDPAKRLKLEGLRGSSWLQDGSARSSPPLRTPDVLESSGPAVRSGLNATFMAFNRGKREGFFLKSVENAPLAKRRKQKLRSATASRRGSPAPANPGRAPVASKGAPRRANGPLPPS
Chain of Cyclin-dependent kinase 14 (Homo sapiens) (O94921 whole entry): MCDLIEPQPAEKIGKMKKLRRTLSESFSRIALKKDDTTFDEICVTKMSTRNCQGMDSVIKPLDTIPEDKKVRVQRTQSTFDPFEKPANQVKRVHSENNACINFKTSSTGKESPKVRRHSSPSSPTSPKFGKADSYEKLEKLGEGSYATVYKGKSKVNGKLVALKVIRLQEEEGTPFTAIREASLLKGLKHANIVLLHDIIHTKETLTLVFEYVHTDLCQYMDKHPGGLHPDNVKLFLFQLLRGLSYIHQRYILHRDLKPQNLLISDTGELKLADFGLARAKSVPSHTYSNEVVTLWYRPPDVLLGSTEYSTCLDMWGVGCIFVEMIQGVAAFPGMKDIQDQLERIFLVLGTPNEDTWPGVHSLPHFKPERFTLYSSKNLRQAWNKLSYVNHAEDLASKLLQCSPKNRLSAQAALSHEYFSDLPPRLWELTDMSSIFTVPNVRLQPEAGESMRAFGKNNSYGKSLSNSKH
Chain of Dual specificity mitogen-activated protein kinase kinase 1 (Q02750 whole entry): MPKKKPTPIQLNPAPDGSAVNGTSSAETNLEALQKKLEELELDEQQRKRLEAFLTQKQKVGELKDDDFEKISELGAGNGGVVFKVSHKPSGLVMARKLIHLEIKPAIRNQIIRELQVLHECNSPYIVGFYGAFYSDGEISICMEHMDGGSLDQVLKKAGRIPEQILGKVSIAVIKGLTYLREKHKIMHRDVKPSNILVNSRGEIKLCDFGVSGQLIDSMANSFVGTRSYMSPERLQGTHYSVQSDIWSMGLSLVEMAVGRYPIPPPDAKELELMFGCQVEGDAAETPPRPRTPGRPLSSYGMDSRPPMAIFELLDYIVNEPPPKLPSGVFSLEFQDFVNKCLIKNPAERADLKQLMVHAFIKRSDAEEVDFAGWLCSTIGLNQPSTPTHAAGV
Chain of Aurora kinase B (Q96GD4 whole entry): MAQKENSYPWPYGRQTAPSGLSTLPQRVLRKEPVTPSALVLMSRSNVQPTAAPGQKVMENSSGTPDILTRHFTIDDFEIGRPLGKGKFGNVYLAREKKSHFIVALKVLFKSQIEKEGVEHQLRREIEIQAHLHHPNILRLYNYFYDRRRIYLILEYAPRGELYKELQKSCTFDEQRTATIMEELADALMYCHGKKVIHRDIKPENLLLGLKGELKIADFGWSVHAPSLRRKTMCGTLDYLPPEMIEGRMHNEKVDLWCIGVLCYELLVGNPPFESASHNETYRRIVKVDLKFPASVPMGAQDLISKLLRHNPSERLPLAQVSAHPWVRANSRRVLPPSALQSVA
Chain of Voltage-gated inwardly rectifying potassium channel KCNH2 (Q12809 whole entry): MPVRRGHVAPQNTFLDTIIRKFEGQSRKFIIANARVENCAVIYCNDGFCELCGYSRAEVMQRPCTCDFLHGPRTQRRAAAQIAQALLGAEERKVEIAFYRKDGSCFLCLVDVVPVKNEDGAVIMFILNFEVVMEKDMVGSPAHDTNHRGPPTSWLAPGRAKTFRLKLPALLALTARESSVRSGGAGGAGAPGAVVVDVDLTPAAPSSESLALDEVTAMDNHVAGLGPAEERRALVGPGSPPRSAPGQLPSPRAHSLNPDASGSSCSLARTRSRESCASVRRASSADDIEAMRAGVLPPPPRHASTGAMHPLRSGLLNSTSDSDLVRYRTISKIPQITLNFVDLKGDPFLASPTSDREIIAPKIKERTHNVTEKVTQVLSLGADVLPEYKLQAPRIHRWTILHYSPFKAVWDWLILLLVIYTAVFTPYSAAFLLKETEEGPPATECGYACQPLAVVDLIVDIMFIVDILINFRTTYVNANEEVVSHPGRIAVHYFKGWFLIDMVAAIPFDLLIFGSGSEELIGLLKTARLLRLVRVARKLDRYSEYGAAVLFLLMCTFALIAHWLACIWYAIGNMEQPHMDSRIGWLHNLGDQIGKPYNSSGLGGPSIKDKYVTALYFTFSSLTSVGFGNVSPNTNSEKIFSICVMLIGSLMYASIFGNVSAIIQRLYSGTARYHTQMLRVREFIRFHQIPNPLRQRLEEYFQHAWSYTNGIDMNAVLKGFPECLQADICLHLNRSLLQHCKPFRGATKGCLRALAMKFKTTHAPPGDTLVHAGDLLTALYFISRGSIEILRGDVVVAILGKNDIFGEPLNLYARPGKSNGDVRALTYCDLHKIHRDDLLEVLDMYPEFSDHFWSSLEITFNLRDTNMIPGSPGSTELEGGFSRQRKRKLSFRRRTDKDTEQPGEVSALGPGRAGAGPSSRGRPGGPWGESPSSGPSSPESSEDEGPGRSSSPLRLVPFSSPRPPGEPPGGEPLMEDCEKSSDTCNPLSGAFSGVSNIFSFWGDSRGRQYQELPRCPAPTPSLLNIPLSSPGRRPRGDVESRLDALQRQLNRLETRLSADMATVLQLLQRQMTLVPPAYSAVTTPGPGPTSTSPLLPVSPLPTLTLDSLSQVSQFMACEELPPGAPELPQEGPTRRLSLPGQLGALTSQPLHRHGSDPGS

Compound: Cc1cc(C)cc([C@@H]2c3cc(C)ccc3NC(=O)CN2C(=O)c2ccc(Br)s2)c1
- % of inhibition [1]: 0%

Compound: CN(C)C/C=C/C(=O)Nc1ccc(C(=O)N2CCCC(Nc3ncc(Cl)c(-c4c[nH]c5ccccc45)n3)C2)cc1 (stereo not given)
- % of control [2]: 93%

Compound: Nc1cnc(N2CCc3cc(S(=O)(=O)Nc4c(F)cc(Cl)cc4F)cc(N4CCCC4=O)c32)nc1 [TP-020n]
- % of control [3]: 100%

Compound: CNC(=O)Nc1ccc(-c2nc(N3CC4CCC(C3)O4)c3cnn(C4CCC5(CC4)OCCO5)c3n2)cc1
- % of control [4]: 100%
- % of control [5]: 25%

Compound: Cc1cc([C@@H](C)Nc2ccccc2C(=O)O)c2nc(N3CCOCC3)cc(=O)n2c1 [AZD-6482]
- % of control [6]: 89%

- % of control ([7]; at 1 µM): 91%
- % of control ([7]; at 5 µM): 96%
Compound: C=CC(=O)Nc1cccc(C(=O)Nc2ccc(Nc3cc(-c4[nH]c(SC)nc4C)ccn3)cc2)c1

Compound: CCC(=O)N1CCN(c2ccc(-n3c(=O)ccc4cnc5ccc(-c6cnc7ccccc7c6)cc5c43)cc2C(F)(F)F)CC1
- % of control (Aurora kinase B): 82%

Compound: Cc1cc(F)c(C(=O)Nc2cccc(-c3nncn3C(C)C)n2)cc1-n1cnc(C2CC2)c1
- % of control [8]: 86%

— ChEMBL document CHEMBL5465560, “Selectivity Literature for EUbOPEN Chemogenomic Library” (2024)
